For assay [1], the system named is rat bladder smooth muscle strips. As to the kind of experiment: tissue or blood. Particulars: read-out: BK-induced Contraction IC50.
The subject of assay [2] is bradykinin-induced PGE2 in rat bladder tissue strips. As to the kind of experiment: PGE2 release from urinary bladder strips, enzyme immunoassay (Example I). The assay is classed as cell-based. Particulars: 10 min, 10 minutes of bradykinin challenge, read-out: BK-induced PGE2 IC50.
Assay [3] deals with rat bladder smooth muscle strips.
The next assay has as its system L-type channel. Particulars: cited from earlier work.
For a further assay, the system named is rat bladder. In words: Acetic-acid overactive bladder model, intravesical delivery, cystometry (Example V). The assay is classed as in vivo.
Assay [4] concerns bradykinin-stimulated PGE2 release from rat bladder tissue strips. In words: tissue or blood. To be noted: read-out: inhibition of bradykinin-evoked PGE2 release.
Assay [5] relates to rat bladder tissue strips. In words: tissue or blood. To be noted: read-out: inhibition of contractile response to bradykinin.
The subject of another assay is COX. To be noted: read-out: IC50 in a non-selective COX assay; cited from earlier work.
For the next assay, the system named is rat urinary bladder. In words: In vivo rat cystometry model, 0.2% acetic acid infusion (Example I). Particulars: 10 mg/kg intravenous. On the procedure: The rats were anesthetized with urethane at 1.2 g/kg i.p. in 5 ml/kg. A polyethylene catheter (PE50) was implanted into the bladder for saline or acetic acid infusion through a 3-way stopcock. A pressure transducer was connected for measurements of intravesical pressure. Warm (37° C.) saline was infused into the bladder at a constant rate of […] (1 ml/hour) until cystometry became stable (no less than 60 minutes). Thereafter, 0.2% acetic acid was infused into the urinary bladder. Aspirin (10 mg/kg i.v.) and vehicle were administered intravenously via a PE-10 catheter in the femoral vein at 5 minutes after infusion of acetic acid was started and at the end of first micturition cycle. Dunnett's test was applied for comparison between the time before and after test substance or vehicle treatment. To ascertain differences between the test substance and the vehicle control group, an unpaired Student's t test was used. Differences are considered significant at […].

Where [6] appears, read: in irrigation buffer, 0.2% acetic acid, female rats.

Ends that are not written are not given here.

Chain of L-type channel (Q13936 whole entry): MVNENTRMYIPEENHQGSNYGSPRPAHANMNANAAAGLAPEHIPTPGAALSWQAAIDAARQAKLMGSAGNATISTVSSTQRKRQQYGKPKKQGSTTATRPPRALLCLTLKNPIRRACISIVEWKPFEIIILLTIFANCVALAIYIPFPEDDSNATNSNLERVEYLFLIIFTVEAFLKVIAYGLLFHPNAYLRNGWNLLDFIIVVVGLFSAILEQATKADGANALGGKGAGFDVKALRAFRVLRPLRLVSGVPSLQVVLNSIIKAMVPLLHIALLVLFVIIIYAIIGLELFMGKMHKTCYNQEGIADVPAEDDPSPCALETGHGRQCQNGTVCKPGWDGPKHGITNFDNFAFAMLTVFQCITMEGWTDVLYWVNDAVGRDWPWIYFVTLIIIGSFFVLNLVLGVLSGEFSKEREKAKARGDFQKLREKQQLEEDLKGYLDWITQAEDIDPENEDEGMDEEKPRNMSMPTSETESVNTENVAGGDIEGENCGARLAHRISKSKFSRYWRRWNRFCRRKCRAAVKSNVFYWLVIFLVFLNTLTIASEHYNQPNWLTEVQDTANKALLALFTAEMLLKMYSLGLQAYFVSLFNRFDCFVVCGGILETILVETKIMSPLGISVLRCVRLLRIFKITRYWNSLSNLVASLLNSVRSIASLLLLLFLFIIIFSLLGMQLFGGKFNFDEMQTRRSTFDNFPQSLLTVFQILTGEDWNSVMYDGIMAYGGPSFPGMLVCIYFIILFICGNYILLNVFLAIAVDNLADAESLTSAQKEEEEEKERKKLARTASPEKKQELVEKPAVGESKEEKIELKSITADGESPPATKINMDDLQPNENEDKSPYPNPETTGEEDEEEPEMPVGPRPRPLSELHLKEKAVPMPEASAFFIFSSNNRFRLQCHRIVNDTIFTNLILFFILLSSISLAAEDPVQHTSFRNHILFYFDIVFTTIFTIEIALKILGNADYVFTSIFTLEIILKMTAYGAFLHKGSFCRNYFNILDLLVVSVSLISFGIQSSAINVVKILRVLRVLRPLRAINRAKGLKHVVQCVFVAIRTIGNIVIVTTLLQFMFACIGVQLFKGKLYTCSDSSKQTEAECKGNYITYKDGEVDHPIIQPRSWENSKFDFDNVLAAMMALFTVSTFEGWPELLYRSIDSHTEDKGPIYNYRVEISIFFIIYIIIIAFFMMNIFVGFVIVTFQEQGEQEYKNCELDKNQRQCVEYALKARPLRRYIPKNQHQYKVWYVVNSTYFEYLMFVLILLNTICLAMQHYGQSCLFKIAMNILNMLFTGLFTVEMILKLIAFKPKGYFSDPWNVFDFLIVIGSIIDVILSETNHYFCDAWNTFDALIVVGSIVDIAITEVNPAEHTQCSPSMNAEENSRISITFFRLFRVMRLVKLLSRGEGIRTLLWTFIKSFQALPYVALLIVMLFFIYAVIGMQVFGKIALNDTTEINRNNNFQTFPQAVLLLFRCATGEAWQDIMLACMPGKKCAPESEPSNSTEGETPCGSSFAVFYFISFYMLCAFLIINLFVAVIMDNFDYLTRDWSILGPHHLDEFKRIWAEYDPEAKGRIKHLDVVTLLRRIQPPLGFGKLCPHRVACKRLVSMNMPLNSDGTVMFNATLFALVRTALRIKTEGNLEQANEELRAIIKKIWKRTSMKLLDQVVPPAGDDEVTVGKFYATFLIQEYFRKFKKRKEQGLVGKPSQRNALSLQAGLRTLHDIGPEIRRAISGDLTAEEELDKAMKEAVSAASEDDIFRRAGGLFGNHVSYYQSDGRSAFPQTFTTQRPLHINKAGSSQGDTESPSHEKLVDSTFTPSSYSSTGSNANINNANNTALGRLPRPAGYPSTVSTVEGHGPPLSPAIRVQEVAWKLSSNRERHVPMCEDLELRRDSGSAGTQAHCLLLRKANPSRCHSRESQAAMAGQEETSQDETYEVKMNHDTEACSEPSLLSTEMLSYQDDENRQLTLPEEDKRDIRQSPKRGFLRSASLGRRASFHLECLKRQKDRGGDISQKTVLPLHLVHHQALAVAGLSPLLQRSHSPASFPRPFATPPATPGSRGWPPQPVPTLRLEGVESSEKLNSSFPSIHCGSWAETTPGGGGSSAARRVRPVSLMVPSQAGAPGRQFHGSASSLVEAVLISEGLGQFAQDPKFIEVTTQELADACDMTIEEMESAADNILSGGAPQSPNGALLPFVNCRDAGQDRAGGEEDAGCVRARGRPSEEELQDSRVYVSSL

For `CS(=O)(=O)c1ccc(-c2cc(Br)sc2-c2ccc(F)cc2)cc1` [DUP-697, 5-bromo-2-(4-fluorophenyl)-3-(4-methylsulfonyl) thiophene], the IC50 in [1] and in [2] was over 25 µM each time.

Regarding `COC(=O)C1=C(C)NC(C)=C(C(=O)OC)C1c1ccccc1[N+](=O)[O-]` [Nifedipine, 1,4-dihydro-2,6-dimethyl-4-(2-nitrophenyl)-3,5-pyridinedicarboxylic acid dimethyl ester], the “type of antagonism upon bradykinin-induced contractile responses” value in assay [3] (single agent, 10 min incubation) is recorded as “noncompetitive”. Moreover, the onset of action entry in the assay with L-type channel is given as “less than 10 minutes”. Also, in the assay with rat bladder (setting [6]), the “concentration of maximal effects on the shortening of the ICI” value turned out to be 1 µM. The “ICI plateau at higher concentrations” value in the assay on rat bladder (nifedipine above 1 μM in irrigation buffer) is reported as “approximately 75 % of baseline”.

`CC(C(=O)O)c1cccc(C(=O)c2ccccc2)c1` (stereo not drawn) [Ketoprofen, 3-benzoyl-α-methylbenzeneacetic acid]: the inhibition – broadly, the change of the read-out against control, counted positive when it falls – at 10 µM in [4] came out at 81%; in [5], 67%. Moreover, the IC50 (as a rule, the concentration at which inhibition is half-maximal) in the assay with COX was 4 to 8 nM. Also, in the assay on rat bladder (setting [6]), the “concentration giving complete inhibition of the shortening of the ICI” value is listed as “approximately 3 μM”.

With RPPGFSPFR [bradykinin], the EC50 in [3] (read-out: EC50, cumulative concentration-response curve (contraction), agonist on bladder strips of normal animals) came out at 8.5 nM.

Turning to `CC(C(=O)O)c1ccc(-c2ccccc2)c(F)c1` (stereo not shown) [Flurbiprofen], the IC50 in [1] was 24.8 µM; in assay [2], 1.65 µM.

Consider `CS(=O)(=O)c1ccc(-n2nc(C(F)(F)F)cc2-c2ccc(F)cc2)cc1` [SC-58125, 1-[(4-methysufonyl)phenyl]-3-tri-fluoromethyl-5-(4-fluorophenyl)pyrazole], for which the IC50 in assay [1] and in assay [2] was over 25 µM throughout.

With `CC(=O)Oc1ccccc1C(=O)O` [aspirin], in the assay on rat urinary bladder, the Threshold pressure result is on record as “not affected”, the bladder capacity entry is reported as “parallel changes”, the “inhibition of the acetic acid induced reduction in the intercontraction interval (ICI)” value was “gradual time-dependent inhibition” and the micturition pressure entry is on record as “not affected”.

The values are drawn from patent US20190083477A1, “Cyclooxygenase Inhibitor and Calcium Channel Antagonist Compositions and Methods for Use in Urological Procedures” (Omeros Corporation, priority 2005, published 2019).
